From article PMC8920872 (Toxicology Reports, 2022)
Where two headings read alike, the source gives them in different places.

Key:
Assay type in all cases: cell-based
[1] = system: JIMT-1 breast cancer cells; test: MTT dose response assay, JIMT-1; details: Homo sapiens, JIMT-1, 72 h
[2] = system: MCF-10A normal-like breast epithelial cells; test: MTT dose response assay, MCF-10A; details: Homo sapiens, 72 h
[3] = system: MCF-7 breast cancer cells; test: MTT dose response assay, MCF-7; details: Homo sapiens, MCF7, 72 h
[4] = read-out: IC50 (mean of three repeats ± SD)

| SMILES | IC50 [1, 4] [µM] | IC50 [2, 4] [µM] | IC50 [3] [µM] | IC50 [1] [µM] | IC50 [2] [µM] |
| --- | --- | --- | --- | --- | --- |
| C=C[C@@]12COC(=O)C(=C)[C@@H]1[C@@H](O)[C@H](C(=C)C(=O)OC)[C@@H](OC(=O)C(=C)CO)C2 [Vernodalol, reference compound] | 11.1 | 12.1 |  |  |  |
| C=C[C@@]12COC(=O)C(=C)[C@@H]1[C@H]1OC(=O)C(=C)[C@@H]1[C@@H](O)C2 [Vernolepin (5), Vernolepin] |  |  | 15.9 ± 0.6 | 1.7 ± 0.3 | 2.3 ± 0.2 |
